Results as given in paper PMC10893631, “Receptor-based pharmacophore modeling, molecular docking, synthesis and biological evaluation of novel VEGFR-2, FGFR-1, and BRAF multi-kinase inhibitors” (BMC Chemistry, 2024).

What was measured:
Test in all cases: NCI SRB growth inhibition (single dose 10 µM / five-dose)
Type in all cases: cell-based, human
[1] = system: EKVX; details: Homo sapiens; EKVX (Non-small cell lung cancer), 10 µM; read-out: GI%
How it was run: (§1)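 Seeding varied with cell doubling time (5000–40,000 cells/well). Dilutions were 10-fold or ½ log, five levels in total. Sulforhodamine B staining (0.4% w/v, 10 min, room temperature) of TCA-fixed cells measured growth.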

[2] = system: HCC-2998; details: Homo sapiens; HCC-2998 (Colon cancer), 10 µM; read-out: GI%
How it was run: as §1

[3] = system: HOP-62; details: Homo sapiens; HOP-62 (Non-small cell lung cancer), 10 µM; read-out: GI%
How it was run: as §1

[4] = system: HOP-92; details: Homo sapiens; HOP-92 (Non-small cell lung cancer), 10 µM; read-out: GI%
How it was run: as §1

[5] = system: M14; details: Homo sapiens; M14 (Melanoma), 10 µM; read-out: GI%
How it was run: as §1

[6] = system: MCF7; details: Homo sapiens; MCF7 (Breast cancer), 10 µM; read-out: GI%
How it was run: as §1

[7] = system: MOLT-4; details: Homo sapiens; MOLT-4 (Leukemia), 10 µM; read-out: GI%
How it was run: as §1

[8] = system: NCI-H226; details: Homo sapiens; NCI-H226 (Non-small cell lung cancer), 10 µM; read-out: GI%
How it was run: as §1

[9] = system: NCI-H23; details: Homo sapiens; NCI-H23 (Non-small cell lung cancer), 10 µM; read-out: GI%
How it was run: as §1

[10] = system: NCI-H522; details: Homo sapiens; NCI-H522 (Non-small cell lung cancer), 10 µM; read-out: GI%
How it was run: as §1

[11] = system: OVCAR-3; details: Homo sapiens; OVCAR-3 (Ovarian cancer), 10 µM; read-out: GI%
How it was run: as §1

[12] = system: OVCAR-5; details: Homo sapiens; OVCAR-5 (Ovarian cancer), 10 µM; read-out: GI%
How it was run: as §1

[13] = system: PC-3; details: Homo sapiens; PC-3 (Prostate cancer), 10 µM; read-out: GI%
How it was run: as §1

[14] = system: RPMI-8226; details: Homo sapiens; RPMI-8226 (Leukemia), 10 µM; read-out: GI%
How it was run: as §1

[15] = system: SF-268; details: Homo sapiens; SF-268 (CNS cancer), 10 µM; read-out: GI%
How it was run: as §1

[16] = system: SF-539; details: Homo sapiens; SF-539 (CNS cancer), 10 µM; read-out: GI%
How it was run: as §1

[17] = system: SN12C; details: Homo sapiens; SN12C (Renal cancer), 10 µM; read-out: GI%
How it was run: as §1

[18] = system: SNB-19; details: Homo sapiens; SNB-19 (CNS cancer), 10 µM; read-out: GI%
How it was run: as §1

[19] = system: SR; details: Homo sapiens; SR (Leukemia), 10 µM; read-out: GI%
How it was run: as §1

[20] = system: SW-620; details: Homo sapiens; SW-620 (Colon cancer), 10 µM; read-out: GI%
How it was run: as §1

[21] = system: TK-10; details: Homo sapiens; TK-10 (Renal cancer), 10 µM; read-out: GI%
How it was run: as §1

[22] = system: U251; details: Homo sapiens, U-251; U251 (CNS cancer), 10 µM; read-out: GI%
How it was run: as §1

[23] = system: UACC-62; details: Homo sapiens; UACC-62 (Melanoma), 10 µM; read-out: GI%
How it was run: as §1

[24] = system: HT29; details: Homo sapiens, HT-29; HT29 (Colon cancer), 10 µM; read-out: GI%
How it was run: as §1

Compound	inhibition at 10 µM [1] [%]	inhibition at 10 µM [2] [%]	inhibition at 10 µM [4] [%]	inhibition at 10 µM [5] [%]	inhibition at 10 µM [6] [%]	inhibition at 10 µM [7] [%]	inhibition at 10 µM [8] [%]	inhibition at 10 µM [9] [%]	inhibition at 10 µM [10] [%]	inhibition at 10 µM [11] [%]	inhibition at 10 µM [12] [%]	inhibition at 10 µM [13] [%]	inhibition at 10 µM [14] [%]	inhibition at 10 µM [15] [%]	inhibition at 10 µM [16] [%]	inhibition at 10 µM [18] [%]	inhibition at 10 µM [19] [%]	inhibition at 10 µM [20] [%]	inhibition at 10 µM [21] [%]	inhibition at 10 µM [22] [%]	further results
COc1ccc(-c2nc3cc(C(=O)NN=Cc4cc(OC)c(OC)c(OC)c4)ccc3[nH]2)cc1 [8n, 2-(4-Methoxyphenyl)-N'-(3,4,5-trimethoxybenzylidene)-1H-benzo[d]imidazole-5-carbohydrazide]	< 5	< 5	< 5	40.3	73.1	22.1	22.3	10.8	96.2	< 5	< 5	12.9	44.5	21	24.4	36.2	26.9	< 5	< 5	15.3	inhibition at 10 µM [3]: 14.6%; inhibition at 10 µM [17]: 9.66%; inhibition at 10 µM [23]: 68.5%
COc1cc(C=NNC(=O)c2ccc3[nH]c(-c4ccccc4)nc3c2)cc(OC)c1OC [8g, 2-Phenyl-N'-(3,4,5-trimethoxybenzylidene)-1H-benzo[d]imidazole-5-carbohydrazide]	12.2	44.3	< 5	43.3	86	21.2	50.4	49.4	50.7	29.4	< 5	37.9	86.9	32	49.8	25.2	17.6	37.9	6.66	42.3	inhibition at 10 µM [24]: 47.3%; inhibition at 10 µM [17]: 32.2%; inhibition at 10 µM [23]: 70.4%
COc1ccc(-c2nc3cc(C(=O)NN=Cc4cc(OC)ccc4OC)ccc3[nH]2)cc1 [8m, N'-(2,5-Dimethoxybenzylidene)-2-(4-methoxyphenyl)-1H-benzo[d]imidazole-5-carbohydrazide]	10.6	< 5	< 5	< 5	20.6	35.8	< 5	< 5	21.3	< 5	< 5	13.6	76.8	9.02	32.6	< 5	28.5	< 5	< 5	9.71	inhibition at 10 µM [3]: 19.4%; inhibition at 10 µM [24]: 25.4%; inhibition at 10 µM [23]: 6.39%
COc1ccc(C=NNC(=O)c2ccc3[nH]c(-c4ccc(Cl)cc4)nc3c2)cc1O [8s, 2-(4-Chlorophenyl)-N'-(3-hydroxy-4-methoxybenzylidene)-1H-benzo[d]imidazole-5-carbohydrazide]	37	86.8	< 5	42.1	84.9	83.7	37.6	29.2	30.9	47.5	< 5	56.5	> 100	72.7	47.2	39.7	77.2	69.6	< 5	75.2	inhibition at 10 µM [24]: > 100%; inhibition at 10 µM [17]: 31.3%; inhibition at 10 µM [23]: 37.5%
COc1ccc(-c2nc3cc(C(=O)NN=Cc4cccc(O)c4)ccc3[nH]2)cc1 [8i, N'-(3-Hydroxybenzylidene)-2-(4-methoxyphenyl)-1H-benzo[d]imidazole-5-carbohydrazide]	23.4	14.9	27	39.1	88.2	79	7.75	6.56	43.4	8.04	< 5	34.4	24.8	37.4	53.3	15.8	81.9	6.72	< 5	32.1	inhibition at 10 µM [3]: 42%; inhibition at 10 µM [24]: 74.5%; inhibition at 10 µM [23]: 50.8%
COc1ccc(OC)c(C=NNC(=O)c2ccc3[nH]c(-c4ccccc4)nc3c2)c1 [8f, N'-(2,5-Dimethoxybenzylidene)-2-phenyl-1H-benzo[d]imidazole-5-carbohydrazide]	22.7	8.92	7.1	34.4	54.1	49.5	49.5	46.7	37.8	12.5	< 5	55.5	81.3	36.6	36.9	21.4	36.3	30.3	19	20.7	inhibition at 10 µM [24]: 14.7%; inhibition at 10 µM [17]: 35.2%; inhibition at 10 µM [23]: 35.5%
O=C(NN=Cc1cccc(O)c1)c1ccc2[nH]c(-c3ccccc3)nc2c1 [8b, N'-(3-Hydroxybenzylidene)-2-phenyl-1H-benzo[d]imidazole-5-carbohydrazide]	13.8	< 5	< 5	< 5	43.1	31.5	< 5	< 5	38.1	11.1	< 5	11.8	9.59	16.8	13.7	< 5	36.8	< 5	< 5	< 5	inhibition at 10 µM [3]: 19.3%; inhibition at 10 µM [24]: 16.4%; inhibition at 10 µM [23]: < 5%
